# Experimental data published in patent US20240150365A1 (Hotspot Therapeutics, Inc., priority 2022, published 2024).
# Where two headings read alike, the source gives them in different places.
# Tests used:
# MALT1 = molecular target: T1, MALT1 (Homo sapiens, UniProt Q9UDY8); assay: MALT-1 Fluorogenic Peptide Cleavage Assay (MALT1 inhibition assay); format: biochemical; conditions: Avi-tagged FL MALT-1, Ac-LRSR-AMC peptide substrate, 30 min pre-incubation, 90 min reaction
# T1 construct: Avi-tagged FL MALT-1 (Pharmaron, stored at −70° C.); Avi tag
# T1 sequence (Q9UDY8 1-824): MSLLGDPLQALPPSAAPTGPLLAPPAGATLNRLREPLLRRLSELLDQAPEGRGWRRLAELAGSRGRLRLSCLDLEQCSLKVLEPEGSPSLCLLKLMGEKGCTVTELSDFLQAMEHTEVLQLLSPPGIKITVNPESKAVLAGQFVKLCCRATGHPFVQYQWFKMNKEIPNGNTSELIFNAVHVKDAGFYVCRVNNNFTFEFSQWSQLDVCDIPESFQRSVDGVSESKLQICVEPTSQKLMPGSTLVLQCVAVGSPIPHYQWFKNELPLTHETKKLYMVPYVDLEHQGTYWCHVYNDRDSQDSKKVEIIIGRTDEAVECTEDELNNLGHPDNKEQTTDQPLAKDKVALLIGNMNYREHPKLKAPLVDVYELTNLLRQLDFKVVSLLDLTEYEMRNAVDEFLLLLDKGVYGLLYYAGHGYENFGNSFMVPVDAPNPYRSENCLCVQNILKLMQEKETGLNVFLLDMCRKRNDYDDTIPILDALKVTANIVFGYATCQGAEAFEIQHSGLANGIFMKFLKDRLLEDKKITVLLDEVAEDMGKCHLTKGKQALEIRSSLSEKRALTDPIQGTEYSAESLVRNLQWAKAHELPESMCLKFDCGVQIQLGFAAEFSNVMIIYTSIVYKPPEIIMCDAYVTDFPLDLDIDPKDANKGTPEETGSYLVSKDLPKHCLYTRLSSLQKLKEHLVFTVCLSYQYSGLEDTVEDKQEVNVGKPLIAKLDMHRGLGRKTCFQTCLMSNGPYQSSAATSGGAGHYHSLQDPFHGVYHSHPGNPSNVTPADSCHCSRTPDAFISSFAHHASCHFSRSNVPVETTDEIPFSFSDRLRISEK
# Outline: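 Avi-tagged full-length MALT1 pre-incubated 30 min with compound (2% DMSO final), then cleavage of Ac-LRSR-AMC followed over 90 min at room temperature. AMC fluorescence read at 342/441 nm; % inhibition fitted to sigmoidal curves for IC50.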
# NF-kB = NF-kB reporter assay in Jurkat cells stimulated with aCD3/aCD28/PMA; format: cell-based; conditions: Homo sapiens, Jurkat, read-out: NF-kB Reporter Assay IC50
# Outline: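 Jurkat cells (25,000/well, serum-free RPMI 1640) preincubated 1 hr at 37° C with serially diluted compound, then stimulated with aCD3/aCD28/PMA (final 5 μg/mL, 5 μg/mL, 0.03 μg/mL) for 4 hr. Reporter luminescence read with One-Glo; IC50 derived.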
# [1] = Jurkat cells, 1 hr compound incubation, aCD3/aCD28/PMA stimulation 4 hr, One-Glo readout
SMILES,IC50 (MALT1),IC50 (NF-kB; [1]),IC50 (NF-kB)
"COc1ccc2cnn(C)c2c1NS(=O)(=O)c1ccc(-c2noc(C)n2)nc1 [Example I-161, N-(6-Methoxy-1-Methyl-1H-Indazol-7-yl)-6-(5-Methyl-1,2,4-Oxadiazol-3-yl)Pyridine-3-Sulfonamide]",1000 to 2500 nM,400 to 1000 nM,–
"COc1ccc2cnn(C)c2c1N(C)S(=O)(=O)c1ccc(-n2cc(C(F)(F)F)cn2)nc1 [Example I-162, N-(6-Methoxy-1-Methyl-1H-Indazol-7-yl)-N-Methyl-6-(4-(Trifluoromethyl)-1H-Pyrazol-1-yl)Pyridine-3-Sulfonamide]",< 400 nM,< 400 nM,–
"COc1ccc2cnn(C)c2c1N(CCN(C)C)S(=O)(=O)c1ccc(-n2cc(C(F)(F)F)cn2)nc1 [Example I-163, N-(2-(Dimethylamino)Ethyl)-N-(6-Methoxy-1-Methyl-1H-Indazol-7-yl)-6-(4-(Trifluoromethyl)-1H-Pyrazol-1-yl)Pyridine-3-Sulfonamide]",< 400 nM,–,1000 to 2500 nM
"COc1ccc2cnn(C)c2c1N(CCCN(C)C)S(=O)(=O)c1ccc(-n2cc(C(F)(F)F)cn2)nc1 [Example I-164, N-(3-(Dimethylamino)Propyl)-N-(6-Methoxy-1-Methyl-1H-Indazol-7-yl)-6-(4-(Trifluoromethyl)-1H-Pyrazol-1-yl)Pyridine-3-Sulfonamide]",< 400 nM,400 to 1000 nM,–
"COc1ccc2cnn(C)c2c1N(C)S(=O)(=O)c1ccc(-c2cc(C(F)(F)F)n(C)n2)nc1 [Example I-165, N-(6-Methoxy-1-Methyl-1H-Indazol-7-yl)-N-Methyl-6-(1-Methyl-5-(Trifluoromethyl)-1H-Pyrazol-3-yl)Pyridine-3-Sulfonamide]",< 400 nM,< 400 nM,–
"COc1ccc2cnn(C)c2c1NS(=O)(=O)c1ccc(-c2nc(C)n[nH]2)nc1 [Example I-166, N-(6-Methoxy-1-Methyl-1H-Indazol-7-yl)-6-(3-Methyl-1H-1,2,4-Triazol-5-yl)Pyridine-3-Sulfonamide]",> 2500 nM,> 2500 nM,–
"COc1ccc2cnn(C)c2c1NS(=O)(=O)c1ccc(-c2nc(C(F)(F)F)n[nH]2)nc1 [Example I-167, N-(6-Methoxy-1-Methyl-1H-Indazol-7-yl)-6-(3-(Trifluoromethyl)-1H-1,2,4-Triazol-5-yl)Pyridine-3-Sulfonamide]",1000 to 2500 nM,> 2500 nM,–
"COc1ccc2cnn(C)c2c1NS(=O)(=O)c1ccc(-c2nnc(C)n2C)nc1 [Example I-168, 6-(4,5-dimethyl-4H-1,2,4-triazol-3-yl)-N-(6-methoxy-1-methyl-1H-indazol-7-yl)pyridine-3-sulfonamide]",> 2500 nM,> 2500 nM,–
"COc1ccc2cnn(C)c2c1NS(=O)(=O)c1ccc(-c2nc(C)no2)nc1 [Example I-169, N-(6-Methoxy-1-Methyl-1H-Indazol-7-yl)-6-(3-Methyl-1,2,4-Oxadiazol-5-yl)Pyridine-3-Sulfonamide]",1000 to 2500 nM,> 2500 nM,–
"COc1ccc2cnn(C)c2c1NS(=O)(=O)c1ccc(-c2nnc(C)o2)nc1 [Example I-170, N-(6-Methoxy-1-Methyl-1H-Indazol-7-yl)-6-(5-Methyl-1,3,4-Oxadiazol-2-yl)Pyridine-3-Sulfonamide]",> 2500 nM,> 2500 nM,–
"CC(C)c1ccn(-c2ccc(S(=O)(=O)N(C)c3cccc4cnn(C)c34)cn2)n1 [Example I-171, 6-(3-isopropyl-1H-pyrazol-1-yl)-N-methyl-N-(1-methyl-1H-indazol-7-yl)pyridine-3-sulfonamide]",> 2500 nM,< 400 nM,–
"COc1ccc2cnn(C)c2c1N(C)S(=O)(=O)c1ccc(-n2cc(C(C)C)cn2)nc1 [Example I-172, 6-(4-isopropylpyrazol-1-yl)-N-(6-methoxy-1-methylindazol-7-yl)-N-methylpyridine-3-sulfonamide]",< 400 nM,400 to 1000 nM,–
"COc1ccc2cnn(C)c2c1NS(=O)(=O)c1ccc(-c2csc(C)n2)nc1 [Example I-173, N-(6-methoxy-1-methylindazol-7-yl)-6-(2-methyl-1,3-thiazol-4-yl)pyridine-3-sulfonamide]",< 400 nM,–,< 400 nM
"COc1ccc2[nH]cc(C)c2c1NS(=O)(=O)c1ccc(-n2cc(C(F)(F)F)cn2)nc1 [Example I-174, N-(5-methoxy-3-methyl-1H-indol-4-yl)-6-(4-(trifluoromethyl)-1H-pyrazol-1-yl)pyridine-3-sulfonamide]",< 400 nM,< 400 nM,–
"COc1ccc2cn[nH]c2c1NS(=O)(=O)c1ccc(-n2cc(C(F)(F)F)cn2)nc1 [Example I-175, N-(6-methoxy-1H-indazol-7-yl)-6-(4-(trifluoromethyl)-1H-pyrazol-1-yl)pyridine-3-sulfonamide]",< 400 nM,< 400 nM,–

# Now from value to compound, other results behind:
IC50 (MALT1),IC50 (NF-kB; [1]),SMILES,IC50 (NF-kB)
> 2500 nM,> 2500 nM,"COc1ccc2cnn(C)c2c1NS(=O)(=O)c1ccc(-c2nc(C)n(C)n2)nc1 [Example I-176, 6-(1,5-Dimethyl-1,2,4-Triazol-3-yl)-N-(6-Methoxy-1-Methylindazol-7-yl)Pyridine-3-Sulfonamide]",–
> 2500 nM,> 2500 nM,"COc1ccc2cnn(C)c2c1NS(=O)(=O)c1ccc(CO)nc1 [Example I-177, 6-(Hydroxymethyl)-N-(6-Methoxy-1-Methyl-1H-Indazol-7-yl)Pyridine-3-Sulfonamide]",–
> 2500 nM,> 2500 nM,"COc1ccc2cnn(C)c2c1NS(=O)(=O)c1ccc(C(C)(C)O)nc1 [Example I-178, 6-(2-Hydroxypropan-2-yl)-N-(6-Methoxy-1-Methyl-1H-Indazol-7-yl)Pyridine-3-Sulfonamide]",–
> 2500 nM,> 2500 nM,"Cn1c(=O)c2cccc(N)c2n1S(=O)(=O)c1ccc(-n2cc(C(F)(F)F)cn2)nc1 [Example I-179, 7-Amino-2-Methyl-1-((6-(4-(Trifluoromethyl)-1H-Pyrazol-1-yl)Pyridin-3-yl)Sulfonyl)-1,2-Dihydro-3H-Indazol-3-One]",–
400 to 1000 nM,1000 to 2500 nM,"COc1ncc2nnn(C)c2c1NS(=O)(=O)c1ccc(-n2cc(C(F)(F)F)cn2)nc1 [Example I-180, N-{6-methoxy-1-methyl-[1,2,3]triazolo[4,5-c]pyridin-7-yl}-6-[4-(trifluoromethyl)pyrazol-1-yl]pyridine-3-sulfonamide]",–
> 2500 nM,400 to 1000 nM,"Cn1[nH]c2c(NS(=O)(=O)c3ccc(-n4cc(C(F)(F)F)cn4)nc3)cccc2c1=O [Example I-181, N-(2-methyl-3-oxo-2,3-dihydro-1H-indazol-7-yl)-6-(4-(trifluoromethyl)-1H-pyrazol-1-yl)pyridine-3-sulfonamide]",–
> 2500 nM,> 2500 nM,"Cn1c(=O)c2c(NS(=O)(=O)c3ccc(-n4cc(C(F)(F)F)cn4)nc3)cccc2n1C [Example I-182, N-(1,2-dimethyl-3-oxo-2,3-dihydro-1H-indazol-4-yl)-6-(4-(trifluoromethyl)-1H-pyrazol-1-yl)pyridine-3-sulfonamide]",–
< 400 nM,< 400 nM,"COc1ncc2cnn(C)c2c1N(C)S(=O)(=O)c1ccc(-n2cc(C(F)(F)F)cn2)nc1 [Example I-183, N-(6-methoxy-1-methyl-1H-pyrazolo[4,3-c]pyridin-7-yl)-N-methyl-6-(4-(trifluoromethyl)-1H-pyrazol-1-yl)pyridine-3-sulfonamide]",–
